In patent US8865623B2, “Herbicidally active cyclic diones and derivatives thereof, processes for their preparation, compositions, and method of controlling weeds” (Syngenta Limited, priority 2009, dated 2014) one finds pest or weed control data, which are given here for 17 compounds.

Holding throughout (format): in vivo
The subject of assay [1] is Echinochloa crus-galli (ECHCG). The assay is described as follows: Pre-emergence herbicidal activity, glasshouse pot test. As to conditions: Echinochloa crus-galli, 312 h; Rate 250 g/ha; pre-emergence spray; evaluated after 13 days; read-out: Pre-emergence activity ECHCG (100=total damage to plant; 0=no damage to plant). The gist of the method: (§1)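 Glasshouse pots, standard soil; spray at day 1 (pre) or day 8 (post) after sowing; a.i. in acetone/water 50:50 + 0.5% Tween 20, diluted aqueous. 24/16° C, 14 h light, 65% RH. Visual damage at 13 days: 0 = none, 100 = total.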

For assay [2], the system named is Alopecurus myosuroides (ALOMY). The assay is described as above. Conditions: Alopecurus myosuroides, 312 h; Rate 250 g/ha; pre-emergence spray; evaluated after 13 days; read-out: Pre-emergence activity ALOMY (100=total damage to plant; 0=no damage to plant). The gist of the method: as §1
Assay [3] relates to Lolium perenne (LOLPE). Described as above. Conditions: Lolium perenne, 312 h; Rate 250 g/ha; pre-emergence spray; evaluated after 13 days; read-out: Pre-emergence activity LOLPE (100=total damage to plant; 0=no damage to plant). The gist of the method:
as §1

The test system of assay [4] is Avena fatua (AVEFA). The description is as above. Conditions: Avena fatua, 312 h; Rate 250 g/ha; pre-emergence spray; evaluated after 13 days; read-out: Pre-emergence activity AVEFA (100=total damage to plant; 0=no damage to plant). The gist of the method: as §1
Assay [5] relates to Echinochloa crus-galli (ECHCG). The assay is described as follows: Post-emergence herbicidal activity, glasshouse pot test. Conditions: Echinochloa crus-galli, 312 h, rate 250 g/ha, evaluated after 13 days, glasshouse, read-out: Post-emergence activity ECHCG (100=total damage to plant; 0=no damage to plant). The gist of the method:
as §1

Assay [6] has as its system Alopecurus myosuroides (ALOMY). The assay is described as above. As to conditions: Alopecurus myosuroides, 312 h, rate 250 g/ha, evaluated after 13 days, glasshouse, read-out: Post-emergence activity ALOMY (100=total damage to plant; 0=no damage to plant). The gist of the method:
as §1

The subject of assay [7] is Lolium perenne (LOLPE). The description is as above. As to conditions: Lolium perenne, 312 h, rate 250 g/ha, evaluated after 13 days, glasshouse, read-out: Post-emergence activity LOLPE (100=total damage to plant; 0=no damage to plant). The gist of the method: as §1
Assay [8] has as its system Avena fatua (AVEFA). Described as above. Conditions: Avena fatua, 312 h, rate 250 g/ha, evaluated after 13 days, glasshouse, read-out: Post-emergence activity AVEFA (100=total damage to plant; 0=no damage to plant). The essentials:
as §1

In the case of `CCc1ccc(Oc2ncc(C(F)(F)F)cc2Cl)cc1C1=C(O)CC(C)(C)CC1=O` [Example A-86], the pest or weed control at 250 g/ha in assay [1] is 100%; in assay [2], 90%; in the assay with Lolium perenne (LOLPE) [3] it was 100%; in the assay with Avena fatua (AVEFA) [4] it was 100%; in assay [5], 100%; in assay [6] it was 90%. Further, the values for the pest or weed control at 250 g/ha in the assay with Lolium perenne (LOLPE) [7] and in the assay with Avena fatua (AVEFA) [8] were 70% and 100%, respectively.

In the case of `CCc1ccc(Oc2ccc(Cl)cc2)cc1C1=C(O)[C@H]2CC[C@H](C2)C1=O` (single isomer, unassigned) [Example A-88], the pest or weed control at 250 g/ha came to 100% in assay [1]; 80% in assay [2]; 100% with Lolium perenne (LOLPE) [3]; 60% in the assay with Avena fatua (AVEFA) [4]; 90% in assay [5]; 70% in assay [6]. The results for the pest or weed control at 250 g/ha in the assay with Lolium perenne (LOLPE) [7] and in the assay with Avena fatua (AVEFA) [8] were 50% and 70%, respectively.

Turning to `CCc1ccc(Oc2cc(F)c(C#N)c(F)c2)cc1C1=C(O)C(C)(C)OC(C)(C)C1=O` [Example A-207], the pest or weed control at 250 g/ha in assay [1] is 70%; in assay [2], 30%; with Lolium perenne (LOLPE) [3], 60%; in the assay with Avena fatua (AVEFA) [4], 10%; in assay [5], 100%; in assay [6] it was 80%. For the same compound, the pest or weed control at 250 g/ha came out at 90% in the assay with Lolium perenne (LOLPE) [7] and 80% in the assay with Avena fatua (AVEFA) [8].

For `CCc1ccc(Oc2ncccc2C(F)(F)F)cc1C1=C(O)C(C)(C)OC(C)(C)C1=O` [Example A-154], the pest or weed control at 250 g/ha in assay [1] was 20%; in assay [2], 0%; in the assay on Lolium perenne (LOLPE) [3], 10%; in the assay on Avena fatua (AVEFA) [4] it was 0%; in assay [5], 60%; in assay [6], 20%. The figures for the pest or weed control at 250 g/ha in the assay on Lolium perenne (LOLPE) [7] and with Avena fatua (AVEFA) [8] were 20% and 10%, respectively.

Regarding `CCc1ccc(Oc2ccc(Cl)cc2F)cc1C1=C(O)C(C)(C)OC(C)(C)C1=O` [Example A-15], the pest or weed control at 250 g/ha in assay [1] was determined as 100%; in assay [2], 100%; in the assay with Lolium perenne (LOLPE) [3], 100%; with Avena fatua (AVEFA) [4], 60%; in assay [5], 100%; in assay [6] it was 90%. The pest or weed control at 250 g/ha in the assay on Lolium perenne (LOLPE) [7] was 100%; in the assay with Avena fatua (AVEFA) [8], 70%.

Turning to `CCc1ccc(Oc2ncc(C)cn2)cc1C1=C(O)C(C)(C)OC(C)(C)C1=O` [Example A-123], the pest or weed control at 250 g/ha in assay [1] is 30%; in assay [2] it was 30%; in the assay on Lolium perenne (LOLPE) [3], 20%; in the assay with Avena fatua (AVEFA) [4], 0%; in assay [5], 50%; in assay [6], 20%. The results for the pest or weed control at 250 g/ha in the assay on Lolium perenne (LOLPE) [7] and in the assay on Avena fatua (AVEFA) [8] were 30% and 10%, respectively.

As for `CCc1ccc(Oc2nc3cc(Cl)ccc3s2)cc1C1=C(O)C(C)(C)OC(C)(C)C1=O` [Example A-229], the pest or weed control at 250 g/ha in assay [1] was 70%; in assay [2] it was 30%; in the assay with Lolium perenne (LOLPE) [3], 60%; with Avena fatua (AVEFA) [4], 0%; in assay [5] it was 100%; in assay [6], 90%. The pest or weed control at 250 g/ha is 100% with Lolium perenne (LOLPE) [7] and 10% in the assay with Avena fatua (AVEFA) [8].

`CCc1ccc(Oc2nc3ccc(Cl)cc3o2)cc1C1=C(O)C(C)(C)OC(C)(C)C1=O` [Example A-188]: the pest or weed control at 250 g/ha amounted to 90% in assay [1]; 90% in assay [2]; 100% in the assay with Lolium perenne (LOLPE) [3]; 90% in the assay with Avena fatua (AVEFA) [4]; 100% in assay [5]; 100% in assay [6]. For the same compound, the pest or weed control at 250 g/ha with Lolium perenne (LOLPE) [7] and in the assay on Avena fatua (AVEFA) [8] was 100% each time.

Consider `CCc1ccc(Oc2ccc([N+](=O)[O-])cc2C(F)(F)F)cc1C1=C(O)CC2(CCOCC2)CC1=O` [Example A-309], for which the pest or weed control at 250 g/ha in assay [1] amounted to 70%; in assay [2] it was 40%; with Lolium perenne (LOLPE) [3], 20%; in the assay with Avena fatua (AVEFA) [4], 0%; in assay [5], 100%; in assay [6], 50%. The values for the pest or weed control at 250 g/ha in the assay on Lolium perenne (LOLPE) [7] and in the assay with Avena fatua (AVEFA) [8] were 50% and 70%, respectively.

Regarding `CCc1ccc(Oc2ccc(Br)c(Cl)c2)cc1C1=C(O)[C@H]2CC[C@H](C2)C1=O` [Example A-247], the pest or weed control at 250 g/ha in assay [1] was 100%; in assay [2], 90%; in the assay with Lolium perenne (LOLPE) [3], 90%; in the assay with Avena fatua (AVEFA) [4] it was 50%; in assay [5], 100%; in assay [6] it was 90%. Moreover, the pest or weed control at 250 g/ha in the assay with Lolium perenne (LOLPE) [7] and with Avena fatua (AVEFA) [8] was 100% each time.

On to `CCc1ccc(Oc2nc(C)c(Cl)c(N)n2)cc1C1=C(O)C(C)(C)OC(C)(C)C1=O` [Example A-81], for which the pest or weed control at 250 g/ha was found to be 90% in assay [1]; 30% in assay [2]; 40% in the assay on Lolium perenne (LOLPE) [3]; 10% with Avena fatua (AVEFA) [4]; 70% in assay [5]; 50% in assay [6]. Also, the pest or weed control at 250 g/ha with Lolium perenne (LOLPE) [7] stood at 30%; in the assay on Avena fatua (AVEFA) [8], 50%.

For `CCc1ccc(Oc2nc3cc(Cl)ccc3s2)cc1C1=C(O)[C@H]2CC[C@H](C2)C1=O` [Example A-339], the pest or weed control at 250 g/ha in assay [1] was 100%; in assay [2] it was 100%; in the assay with Lolium perenne (LOLPE) [3], 90%; with Avena fatua (AVEFA) [4], 80%; in assay [5], 100%; in assay [6], 100%. In addition, the pest or weed control at 250 g/ha with Lolium perenne (LOLPE) [7] turned out to be 100%; in the assay with Avena fatua (AVEFA) [8] it was 90%.

`CCc1ccc(Oc2ccc(C(F)(F)F)c(Cl)c2)cc1C1=C(O)[C@H]2CC[C@H](C2)C1=O` [Example A-332]: the pest or weed control at 250 g/ha in assay [1] is 100%; in assay [2] it was 80%; with Lolium perenne (LOLPE) [3], 100%; with Avena fatua (AVEFA) [4] it was 70%; in assay [5], 100%; in assay [6] it was 100%. The pest or weed control at 250 g/ha in the assay with Lolium perenne (LOLPE) [7] and in the assay on Avena fatua (AVEFA) [8] was 100% each time.

Consider `CCc1ccc(Oc2ccc(Br)cc2)cc1C1=C(O)CCCC1=O` [Example A-41], for which the pest or weed control at 250 g/ha in assay [1] stood at 100%; in assay [2], 40%; with Lolium perenne (LOLPE) [3], 60%; with Avena fatua (AVEFA) [4], 20%; in assay [5] it was 90%; in assay [6] it was 30%. The pest or weed control at 250 g/ha with Lolium perenne (LOLPE) [7] was found to be 30%; with Avena fatua (AVEFA) [8], 10%.

Regarding `CCc1ccc(Oc2cccc(F)n2)cc1C1=C(O)C(C)(C)OC(C)(C)C1=O` [Example A-43], the pest or weed control at 250 g/ha in assay [1] stood at 90%; in assay [2], 10%; with Lolium perenne (LOLPE) [3], 10%; in the assay on Avena fatua (AVEFA) [4] it was 0%; in assay [5], 70%; in assay [6], 0%. Also, the pest or weed control at 250 g/ha with Lolium perenne (LOLPE) [7] amounted to 20%; in the assay on Avena fatua (AVEFA) [8], 0%.

As to `CCc1ccc(Oc2ccc(F)cc2[N+](=O)[O-])cc1C1=C(O)C(C)(C)OC(C)(C)C1=O` [Example A-230], the pest or weed control at 250 g/ha in assay [1] was determined as 20%; in assay [2], 0%; in the assay with Lolium perenne (LOLPE) [3] it was 0%; with Avena fatua (AVEFA) [4], 0%; in assay [5] it was 80%; in assay [6] it was 20%. In addition, the pest or weed control at 250 g/ha was 40% with Lolium perenne (LOLPE) [7] and 60% in the assay with Avena fatua (AVEFA) [8].

As for `CCc1ccc(Oc2nc3ccc(Cl)cc3[n+]([O-])n2)cc1C1=C(O)C(C)(C)OC(C)(C)C1=O` [Example A-236], the pest or weed control at 250 g/ha in assay [1] turned out to be 80%; in assay [2], 40%; with Lolium perenne (LOLPE) [3], 20%; in the assay on Avena fatua (AVEFA) [4], 20%; in assay [5], 100%; in assay [6], 100%. Further, the pest or weed control at 250 g/ha amounted to 30% with Lolium perenne (LOLPE) [7] and 100% in the assay with Avena fatua (AVEFA) [8].
